These results are taken from patent US20120207821A1, “Liposomal formulation and use thereof” (priority 2005, published 2012).

Assay [1] relates to Leishmania donovani GE1F8R strain. The experiment in a line: In vivo efficacy assay against SAG-resistant strain. Particulars: BALB/c mice, i.v. 8 weeks after inoculation, 30 days post treatment. The procedure: Inbred mice of 4-6 weeks old, weigh […] and of any sex, strain BALB/c were infected with Leishmania donovani GE1F8R strain by intravenous inoculation with 2.5×10^7 amastigotes from the spleen of an infected hamster. Eight weeks after inoculation, the mice were divided into groups of 4-5 animals and dosed intravenously into the tail vein with optimal dose of free SAG, equivalent amount of free SAG, empty PC-SA liposome or SAG entrapped PC-SA liposome ([…]). Mice were sacrificed on 30 days post treatment. Livers and spleens were excised and weighed. Bone marrow was also isolated and smeared on glass slides. Impressions smears were prepared from the cut surface of the liver and spleen. The impression smears were stained with Giemsa, and number of amastigotes counted microscopically per 500 cell nuclei. The results of 30 days post treatment are expressed as Leishman Donovan units and percentage suppression in parasitemia with respect untreated infected control were calculated.

In assay [2] the test system is Leishmania donovani, AG83. As to the kind of experiment: In vivo activity screening in chronic infection model (12 weeks post infection). The following applies: BALB/c mice, single i.v. dose 12 weeks post infection, 30 days post treatment; SAG 0.015-0.02 g/kg body wt. From the text: Inbred mice of 4-6 weeks old, weigh 20 g and of any sex, strain BALB/c were infected with Leishmania donovani, AG83, by intravenous inoculation with 2.5×10^7 amastigotes from the spleen of an infected hamster. Twelve weeks after inoculation, the mice were divided into groups of 4-5 animals and dosed intravenously into the tail vein with empty PC-SA liposome (1-1.1 g/kg body wt.), free SAG (0.015-0.020 g/kg body wt.) or equivalent amount of SAG entrapped in PC-SA liposome (0.015 g/kg of SAG in 1-1.1 g/kg body wt of liposome). Mice were sacrificed on 30 days post treatment. Livers and spleens were excised and weighed. Impressions smears were prepared from the cut surface of the liver and spleen. The impression smears were stained with Giemsa, and number of amastigotes counted microscopically per 500 cell nuclei. The results of 30 days post treatment are shown below and expressed percentage suppression in parasitemia with respect to untreated infected control calculated.

Assay [3] has as its system Leishmania donovani, AG83. As to the kind of experiment: In vivo efficacy in established infection model (8 weeks post infection). Particulars: BALB/c mice, single i.v. dose 8 weeks post infection, 30 days post treatment, SAG 0.3-0.4 g/kg body wt. From the text: Inbred mice of 4-6 weeks old, weigh 20 g and of any sex, strain BALB/c were infected with Leishmania donovani, AG83, by intravenous inoculation with 2.5×10^7 amastigotes from the spleen of an infected hamster. Eight weeks after inoculation, the mice were divided into groups of 4-5 animals and administered at a single dose intravenously into the tail vein with optimal dose of free SAG (0.3 g/kg wt.) or empty PC-SA liposome (1.1 g/kg wt.) or SAG entrapped PC-SA liposome (0.015 g/kg of SAG into 1.1 g/kg body wt.) or SAG entrapped in PC-Chol liposome (0.015 g/kg of SAG into 1.25 g/kg wt. of lipid). Mice were sacrificed on 30 days post treatment. Livers and spleens were excised and weighed. Bone marrow was also isolated from femur bone and smeared on glass slides. Impressions smears were prepared from the cut surface of the liver and spleen. The impression smears were stained with Giemsa, and number of amastigotes counted microscopically per 500 cell nuclei. The results of 30 days post treatment are shown below and expressed as percentage suppression in parasitemia with respect to untreated infected.

The subject of assay [4] is Leishmania donovani, AG83. The experiment in a line: In vivo activity screening in established infection model with graded doses to calculate 50% effective dose. Particulars: for % Inhibition of liver parasite level / % Inhibition of spleen parasite level: BALB/c mice, i.v., 30 days post treatment. From the text: Inbred mice of 4-6 weeks old, weigh 20 g and of any sex, strain BALB/c were infected with Leishmania donovani, AG83, by intravenous inoculation with 2.5×10^7 amastigotes from the spleen of an infected hamster. Eight weeks after inoculation, the mice were divided into groups of 4-5 animals and dosed intravenously into the tail vein with graded dose of free SAG, empty PC-SA liposome, or SAG entrapped PC-SA liposome. Mice were sacrificed on 30 days post treatment. The livers and spleens were excised and weighed. Impressions smears were prepared from the cut surface of the liver and spleen. The impression smears were stained with Giemsa, and number of amastigotes counted microscopically per 500 cell nuclei. The results of 30 days post treatment are expressed as percentage suppression in parasite burden in compared to infected but untreated mice. Thereby, the dosage necessary to reduce the parasite count to 50% of the untreated group could be calculated.

Where [5] appears, read: liver parasite level, dose expressed as SAG.
The mark [6] stands for this setting: spleen parasite level, dose expressed as SAG.

On to `C[C@@H]1[C@H](O)[C@@H](C)/C=C/C=C/C=C/C=C/C=C/C=C/C=C/[C@H](O[C@@H]2O[C@H](C)[C@@H](O)[C@H](N)[C@@H]2O)C[C@@H]2O[C@](O)(C[C@@H](O)C[C@@H](O)[C@H](O)CC[C@@H](O)C[C@@H](O)CC(=O)O[C@H]1C)C[C@H](O)[C@H]2C(=O)O` [Amphotericin B], for which the “% Inhibition of parasite level” value worked out at 85.091% in assay [1] (bone marrow, Amphotericin B 0.002-0.0025 g/kg body wt.); 87.778% in assay [1] (liver, Amphotericin B 0.002-0.0025 g/kg body wt.); 85.091% in assay [1] (spleen, Amphotericin B 0.002-0.0025 g/kg body wt.).
For sodium antimony gluconate [SAG], the “% Inhibition of liver parasite level” value is reported as 50.88% in assay [2]; 82.322% in assay [3]; 56.55% in assay [4] (SAG 0.005 g/kg body wt.); 56.7% in assay [4] (SAG 0.010 g/kg body wt.); 61.29% in assay [4] (SAG 0.050 g/kg body wt.); 88.03% in assay [4] (SAG 0.10 g/kg body wt.). Moreover, the “% Inhibition of liver parasite level” value in assay [4] (SAG 0.30 g/kg body wt.) is reported as 92.73%; in assay [4] (SAG 0.50 g/kg body wt.), 96.6%. Further, the “% Inhibition of spleen parasite level” value in assay [2] is given as 26.69%; in assay [3] it was 70%; in assay [4] (SAG 0.005 g/kg body wt.) it was 41.27%; in assay [4] (SAG 0.010 g/kg body wt.), 50.95%; in assay [4] (SAG 0.050 g/kg body wt.), 55.67%; in assay [4] (SAG 0.10 g/kg body wt.), 65.79%. Also, the “% Inhibition of spleen parasite level” value in assay [4] (SAG 0.30 g/kg body wt.) is listed as 70.49%; in assay [4] (SAG 0.50 g/kg body wt.), 80.33%. For the same compound, the “% Inhibition of parasite level” value in assay [1] (bone marrow, SAG 0.015-0.02 g/kg body wt.) was 0%; in assay [1] (bone marrow, SAG 0.3 g/kg body wt.), 16.836%; in assay [1] (liver, SAG 0.015-0.02 g/kg body wt.), 0%; in assay [1] (liver, SAG 0.3 g/kg body wt.), 5.309%; in assay [1] (spleen, SAG 0.015-0.02 g/kg body wt.) it was 0%; in assay [1] (spleen, SAG 0.3 g/kg body wt.) it was 16.836%. In assay [3] (bone marrow), the “% Inhibition of parasite level” value came out at 44.029%. The “ED50 (+S.E) Liver, SAG” value in assay [4] (setting [5]) is on record as 0.012 + 0.004 g/kg body wt. In addition, the “ED90 (+S.E) Liver, SAG” value in assay [4] (setting [5]) is on record as 0.347 + 0.005 g/kg body wt. Also, the “ED50 (+S.E) Spleen, SAG” value in assay [4] (setting [6]) was 0.145 + 0.020 g/kg body wt. In addition, the “ED90 (+S.E) Spleen, SAG” value in assay [4] (setting [6]) was 0.493 + 0.028 g/kg body wt.
